Reference: the supplement of paper PMC10307832

Key:
Test in all cases: relative viability (nuclei count vs DMSO), 5 days (fraction); higher = more cells survive
[1] = test system: NCI-H1437
Summary of the method: (§1)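 Relative viability was taken as the ratio of nuclei in treated wells to nuclei in vehicle wells. Lung cancer cell lines in 1536-well plates received compounds by pin tool one day after seeding, either one drug alone or a fixed anchor-drug dose plus five library-drug doses (not always all listed) in √10 steps. Nuclei were counted on 4× images after 5 days of treatment, and values are medians of duplicate plates.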

[2] = test system: LXF-289
Summary of the method: as §1

[3] = test system: PC-14
Summary of the method: as §1

[4] = test system: HCC-44
Summary of the method: as §1

[5] = test system: H3255
Summary of the method: as §1

[6] = test system: HCC-366
Summary of the method: as §1

[7] = test system: UMC-11
Summary of the method: as §1

[8] = test system: NCI-H441
Summary of the method: as §1

[9] = test system: A-427
Summary of the method: as §1

[10] = test system: NCI-H2347
Summary of the method: as §1

[11] = test system: NCI-H460
Summary of the method: as §1

[12] = test system: NCI-H1755
Summary of the method: as §1

[13] = test system: NCI-H3122
Summary of the method: as §1

[14] = test system: NCI-H2405
Summary of the method: as §1

[15] = test system: NCI-H2009
Summary of the method: as §1

[16] = test system: NCI-H596
Summary of the method: as §1

[17] = test system: LCLC-103H
Summary of the method: as §1

[18] = test system: NCI-H2023
Summary of the method: as §1

[19] = test system: NCI-H23
Summary of the method: as §1

[20] = test system: ABC-1
Summary of the method: as §1

[21] = test system: NCI-H647
Summary of the method: as §1

[22] = test system: PC-3 [JPC-3]
Summary of the method: as §1

COCC1(CO)C(=O)C2CCN1CC2 (stereo not drawn) [PRIMA-1MET] + C[C@]1(O)C[C@@H](c2nc(-c3ccc4ccc(-c5ccccc5)nc4c3)c3c(N)nccn32)C1 [Linsitinib] (partner 1 µM)
relative viability ([1]; first compound 0.2 µM): 1.08 | relative viability ([1]; first compound 0.6325 µM): 0.982 | relative viability ([1]; first compound 2 µM): 1.02 | relative viability ([1]; first compound 6.325 µM): 1.1 | relative viability ([1]; first compound 20 µM): 0.753 | relative viability ([2]; first compound 0.2 µM): 1.02 | relative viability ([2]; first compound 0.6325 µM): 0.958 | relative viability ([2]; first compound 2 µM): 1.04 | relative viability ([2]; first compound 6.325 µM): 0.999 | relative viability ([2]; first compound 20 µM): 0.89 | relative viability ([3]; first compound 0.2 µM): 0.918 | relative viability ([3]; first compound 0.6325 µM): 0.978 | relative viability ([3]; first compound 2 µM): 0.923 | relative viability ([3]; first compound 6.325 µM): 0.987 | relative viability ([3]; first compound 20 µM): 0.927 | relative viability ([4]; first compound 0.2 µM): 0.746 | relative viability ([4]; first compound 0.6325 µM): 0.528 | relative viability ([4]; first compound 2 µM): 0.673 | relative viability ([4]; first compound 6.325 µM): 0.706 | relative viability ([4]; first compound 20 µM): 0.625 | relative viability ([5]; first compound 0.2 µM): 1.13 | relative viability ([5]; first compound 0.6325 µM): 1.01 | relative viability ([5]; first compound 2 µM): 0.8 | relative viability ([5]; first compound 6.325 µM): 1.01 | relative viability ([5]; first compound 20 µM): 0.918 | relative viability ([6]; first compound 0.2 µM): 0.773 | relative viability ([6]; first compound 0.6325 µM): 0.566 | relative viability ([6]; first compound 6.325 µM): 0.636 | relative viability ([6]; first compound 20 µM): 0.0588 | relative viability ([7]; first compound 0.2 µM): 1.11 | relative viability ([7]; first compound 0.6325 µM): 0.887 | relative viability ([7]; first compound 2 µM): 1.04 | relative viability ([7]; first compound 6.325 µM): 0.97 | relative viability ([7]; first compound 20 µM): 0.94 | relative viability ([8]; first compound 0.2 µM): 0.556 | relative viability ([8]; first compound 0.6325 µM): 0.517 | relative viability ([8]; first compound 2 µM): 0.458 | relative viability ([8]; first compound 6.325 µM): 0.524 | relative viability ([8]; first compound 20 µM): 0.24 | relative viability ([9]; first compound 0.2 µM): 1.19 | relative viability ([9]; first compound 0.6325 µM): 0.703 | relative viability ([9]; first compound 2 µM): 0.953 | relative viability ([9]; first compound 6.325 µM): 1.12 | relative viability ([9]; first compound 20 µM): 1.08 | relative viability ([10]; first compound 0.2 µM): 1.02 | relative viability ([10]; first compound 0.6325 µM): 0.847 | relative viability ([10]; first compound 2 µM): 0.697 | relative viability ([10]; first compound 6.325 µM): 0.995 | relative viability ([10]; first compound 20 µM): 0.934 | relative viability ([11]; first compound 0.2 µM): 1.08 | relative viability ([11]; first compound 0.6325 µM): 0.545 | relative viability ([11]; first compound 2 µM): 0.613 | relative viability ([11]; first compound 6.325 µM): 0.0073 | relative viability ([11]; first compound 20 µM): 0.0038 | relative viability ([12]; first compound 0.2 µM): 0.979 | relative viability ([12]; first compound 0.6325 µM): 0.946 | relative viability ([12]; first compound 2 µM): 0.937 | relative viability ([12]; first compound 6.325 µM): 1.02 | relative viability ([12]; first compound 20 µM): 0.983 | relative viability ([13]; first compound 0.2 µM): 0.853 | relative viability ([13]; first compound 0.6325 µM): 0.996 | relative viability ([13]; first compound 2 µM): 1.04 | relative viability ([13]; first compound 6.325 µM): 0.945 | relative viability ([13]; first compound 20 µM): 1.03 | relative viability ([14]; first compound 0.2 µM): 0.635 | relative viability ([14]; first compound 0.6325 µM): 1.01 | relative viability ([14]; first compound 6.325 µM): 0.727 | relative viability ([14]; first compound 20 µM): 0.0877 | relative viability ([15]; first compound 0.2 µM): 1.17 | relative viability ([15]; first compound 0.6325 µM): 1.09 | relative viability ([15]; first compound 2 µM): 1.22 | relative viability ([15]; first compound 6.325 µM): 1.16 | relative viability ([15]; first compound 20 µM): 0.693 | relative viability ([16]; first compound 0.2 µM): 1.29 | relative viability ([16]; first compound 0.6325 µM): 0.894 | relative viability ([16]; first compound 2 µM): 0.972 | relative viability ([16]; first compound 6.325 µM): 1.09 | relative viability ([16]; first compound 20 µM): 1.14 | relative viability ([17]; first compound 0.2 µM): 1.24 | relative viability ([17]; first compound 0.6325 µM): 0.956 | relative viability ([17]; first compound 2 µM): 0.905 | relative viability ([17]; first compound 6.325 µM): 1.12 | relative viability ([17]; first compound 20 µM): 1.1 | relative viability ([18]; first compound 0.2 µM): 0.784 | relative viability ([18]; first compound 0.6325 µM): 0.65 | relative viability ([18]; first compound 2 µM): 0.7 | relative viability ([18]; first compound 6.325 µM): 0.668 | relative viability ([18]; first compound 20 µM): 0.609 | relative viability ([19]; first compound 0.2 µM): 0.692 | relative viability ([19]; first compound 0.6325 µM): 0.443 | relative viability ([19]; first compound 2 µM): 0.419 | relative viability ([19]; first compound 6.325 µM): 0.416 | relative viability ([19]; first compound 20 µM): 0.113 | relative viability ([20]; first compound 0.2 µM): 0.899 | relative viability ([20]; first compound 0.6325 µM): 0.958 | relative viability ([20]; first compound 2 µM): 0.89 | relative viability ([20]; first compound 6.325 µM): 0.833 | relative viability ([20]; first compound 20 µM): 0.519 | relative viability ([21]; first compound 0.2 µM): 1.42 | relative viability ([21]; first compound 0.6325 µM): 1.16 | relative viability ([21]; first compound 2 µM): 1.18 | relative viability ([21]; first compound 6.325 µM): 1.42 | relative viability ([21]; first compound 20 µM): 1.18 | relative viability ([22]; first compound 0.2 µM): 1 | relative viability ([22]; first compound 0.6325 µM): 0.92 | relative viability ([22]; first compound 2 µM): 0.979 | relative viability ([22]; first compound 6.325 µM): 1.02 | relative viability ([22]; first compound 20 µM): 0.91
